SMILES strings stand for the structures. Read-outs that look alike come from different tables or passages of the source.

For data set [1], the system named is male rats of the Wistar strain. The data set is described as follows: Analgesic effect, Randall-Selitto Method. It counts as in vivo, rat (male. On the procedure:
(§1) The rats were tested in groups of six. Only those animals having a normal pain threshold in both hind legs were selected for the tests. The compound to be tested was suspended in 0.3% carboxymethylcellulose aqueous solution and administered orally. […] The analgesic activity was tested by the Pressure Method [Brit. J. […] Int.

Data set [2] relates to male rats of the Wistar strain. Put plainly: Analgesic effect, Acetic Acid Raising Method. It counts as in vivo, rat (male. Details: unit not given here.
Data set [3] deals with male rats of the Wistar strain. The data set is described as follows: Analgesic effect, Pressure Method. Format: in vivo, rat (male. On the procedure: as §1
A short description of the next data set: Solubility. It counts as physicochemical.
In data set [4] the test system is stomach. Put plainly: Effect on gastric ulcer, second method (repeated oral administration). Format: in vivo, rat (male, Donryu strain). On the procedure: Male rats of the Donryu strain having a body weight of 150-200 g were starved for 24 hours and the effects of administration of Compound 1 and its aluminium salt (Compound 7) on the occurrence of gastric ulcers were determined, as were the effects of other known anti-inflammatory agents.
(§2) Each compound to be tested was suspended in a 0.3% solution of carboxymethylcellulose in physiological saline and administered in an amount of 1 ml per 200 g body weight of the rat. Determination of the occurrence of gastric inflammation and ulceration was calculated by adding the sizes of ulcerated regions (mm^2) of each rat observed within a lattice (width 1 cm, divided into 10 equal parts) of a stereomicroscope. The determination was made on the stomach removed after sacrifice of the animal and then fixed for 10 minutes with 1% formalin.
As a second method, first oral administration was effected after 24 hours starvation and a second oral administration was effected after a further 12 hours starvation. Each animal was then sacrificed, under ether anaesthesia, 6 hours after the second administration. This method was employed to observe the effect after repeated administration of the compounds of the invention.

Data set [5] deals with stomach. The data set is described as follows: Effect on gastric ulcer, first method (single oral administration). Format: in vivo, rat (male, Donryu strain). The following applies: 18 hours. On the procedure:
as §2
In a first method, the compound to be tested was administered orally after 24 hours starvation and then, after a further 18 hours, the animal was sacrificed, under ether anaesthesia.

Data set [6] deals with carrageenin-induced oedema. The data set is described as follows: Carrageenin-oedema test in rats (anti-inflammatory activity). Format: in vivo, rat (male, Wistar strain). On the procedure:
Compound 1 was administered through a stomach tube, in suspension in a 0.3% by weight carboxymethylcellulose aqueous solution, in an amount of 6.25 mg/kg or 12.5 mg/kg to male rats of the Wistar strain having a body weight of 120-130 g. After 1 hour, inflammation was induced by injecting subcutaneously […] of a 1% carrageenin suspension into the plantar tissue of the right hind paw of each rat. Paw oedema was measured volumetrically,immediately before and also every hour for 5 hours after the carrageenin injection, and the response, measured as the oedema effect (E) was calculated by the following equation: […]
where Vo and VT represents the paw volumes O and T after the carrageenin injection, respectively.
The tests were also carried out on a control group of rats to which no anti-inflammatory agent had been administered. Each test was carried out on a group of six rats.
The inhibitory effect was measured by the inhibitory ratio (IR), calculated from the following equation:
IR = […] 100 (%)
where Ec represents the oedema ratio of the control rats and E represents the oedema ratio of the rats treated with Compound 1.
The inhibitory ratio was determined on administration of various amounts of Compound 1 and the results obtained 3 hours after carrageenin injection are shown in Table 1.

The subject of data set [7] is male rats of the Wistar strain. The data set is described as follows: Analgesic effect, overall (Pressure, Acetic Acid Raising and Randall-Selitto methods). The conditions noted are these: oral. Format: in vivo, rat (male. On the procedure:
as §1

For data set [8], the system named is rats of the Wistar strain. Put plainly: Acute toxicity (oral). Format: in vivo. The following applies: one week after administration. As to the method:
(§3) Compound 1 was administered in the amounts shown in Table 3 to male rats of the Wistar strain having a body weight of 110-130 g. The rats were tested in groups of eight and similar tests were applied to similar groups of female rats. The compound to be tested was suspended in a 0.3% aqueous solution of carboxymethylcellulose and was administered through a stomach tube. The lethal dose 50% (LD50) and credibility limit 95% (CL) were calculated from the lethal effect by the method of Litchield and Wilcoxon [J. Pharmac. Exp. Ther., 96, 99 (1949)]; the lethal effect was expressed as X/n, in which X is the number of animals which were dead one week after administration and n is the total number of animals used in the test.

The next data set can be described thus: Acute toxicity (oral). It counts as in vivo. The conditions noted are these: in vivo; for LD50 at 168 h: rat, po. As to the method: as §3
Where [9] appears, read: 50 × 2 mg/kg P.O., vs phenylbutazone: Compound 1 * (p = 0.01), Compound 7 ** (p = 0.1), 2 mg/kg.
Setting [10] is: 50 mg/kg P.O., Compound 7 marked ** (significant difference vs phenylbutazone at p = 0.01).
[11] abbreviates: 200 × 2 mg/kg P.O., Aspirin marked * (significant difference vs phenylbutazone at p = 0.01).

As to `CC(C(=O)O)c1cccc(C(=O)c2ccccc2)c1` (centres unmarked) [Ketoprofen], in data set [1] (10 mg/kg orally), the “Randall-Selitto method, Analgesic index, Inflamed foot” value is given as 1.20 and the “Randall-Selitto method, Analgesic index, Normal foot” value was 1.03. In addition, in [2] (100 mg/kg orally), the “Acetic Acid Raising method, a (graded response)” value amounted to 53.8 and the “Acetic Acid Raising method, b (all or none response)” value (“Acetic Acid Raising method, b” for short) was 60. In data set [3] (100 mg/kg orally), the “Pressure method, Ratio (average)” value is reported as 1.40.
`CC(C(=O)O)c1ccc(N2CC3=C(CC=CC3)C2=O)cc1` (stereo not drawn) [Compound 7, Aluminium α-[4-(1-oxo-4,7-dihydro-2-isoindolinyl)phenyl]propionate]: in “Solubility” (dimethyl sulphoxide), the “solubility in dimethyl sulphoxide” value was “slightly soluble”. In “Solubility” (most organic solvents), the “solubility in most organic solvents” value is listed as “sparingly soluble”. The “Size of ulcerated region of stomach” value came to 10.3 ± 1.00 mm^2 in the data set on stomach [4] (setting [9]) and 2.4 ± 0.49 mm^2 with stomach [5] (setting [10]).
With `CCCCC1C(=O)N(c2ccccc2)N(c2ccccc2)C1=O` [Phenylbutazone], the “Acetic Acid Raising method, a (graded response)” value in data set [2] (200 mg/kg orally) turned out to be 25.8. In [2] (200 mg/kg orally), the “Acetic Acid Raising method, b” value is 20. Also, the “Size of ulcerated region of stomach” value in the data set on stomach [4] (setting [11]) is 17.2 ± 1.93 mm^2; in the data set on stomach [5] (200 mg/kg P.O.) it was 6.6 ± 1.31 mm^2.
Regarding `CC(=O)Oc1ccccc1C(=O)O` [Aspirin], the entries for the “Size of ulcerated region of stomach” value in the data set with stomach [4] (setting [11]) and in the data set on stomach [5] (200 mg/kg P.O.) were 27.2 ± 3.01 mm^2 and 9.7 ± 1.36 mm^2, respectively.
On to `Cc1cccc(Nc2ccccc2C(=O)O)c1C` [Mefenamic acid], for which, in data set [2] (150 mg/kg orally), the “Acetic Acid Raising method, a (graded response)” value came to 45.4 and the “Acetic Acid Raising method, b” value is 60.
Consider `COc1ccc2c(c1)c(CC(=O)O)c(C)n2C(=O)c1ccc(Cl)cc1` [Indomethacin], for which the entries for the “Size of ulcerated region of stomach” value with stomach [4] (20 × 2 mg/kg P.O.) and with stomach [5] (20 mg/kg P.O.) were 15.3 ± 1.20 mm^2 and 8.0 ± 1.22 mm^2, respectively.
The term ED50 denotes the dose at which the effect has come halfway, by size or by number of responders. One may read the LD50 as the dose at which mortality reaches 50%. With `CC(C(=O)O)c1ccc(N2CC3=C(CC=CC3)C2=O)cc1` (stereo not drawn) [Compound 1, α-[4-(1-oxo-4,7-dihydro-2-isoindolinyl)phenyl]propionic acid], the Inhibitory ratio in data set [6] (5 mg/kg oral, 3 hours after carrageenin injection) turned out to be 33.2%; in [6] (10 mg/kg oral, 3 hours after carrageenin injection), 57.1%; in data set [6] (20 mg/kg oral, 3 hours after carrageenin injection), 64.7%; in data set [6] (40 mg/kg oral, 3 hours after carrageenin injection) it was 69.0%. The “dose dependence of inhibitory effect (in words)” value in data set [6] (5-40 mg/kg, 3 hours after carrageenin injection) is “increased in rough proportion to the amount of Compound 1 administered”. For the same molecule, the “inhibitory effect over the first 5 hours (in words)” value in data set [6] (6.25 or 12.5 mg/kg oral) is given as “strong inhibitory effect appeared over the first 5 hours”. The “onset of inhibitory effect (in words)” value in [6] (6.25 or 12.5 mg/kg oral) is recorded as “clearly appeared at the end of the first hour after carrageenin injection”. Further, in data set [6] (3 h, oral, rat carrageenin oedema, range printed 4.0-30.9 mg/kg, read-out: ED50 (effective dose 50%)), the ED50 turned out to be 11.1 mg/kg. For the same molecule, the “inhibitory effect on carrageenin-induced oedema (in words)” value in [6] (rat hind paw oedema) is “particularly strong inhibitory effect”. Further, the “Randall-Selitto method, Analgesic index, Inflamed foot” value in data set [1] (10 mg/kg orally) amounted to 1.21. For the same molecule, the “Randall-Selitto method, Analgesic index, Normal foot” value in [1] (10 mg/kg orally) worked out at 1.04. The “analgesic effect (in words)” value in data set [7] is “weak”. In addition, the “Acetic Acid Raising method, a (graded response)” value in data set [2] (100 mg/kg orally) is 21.0. Also, the “Acetic Acid Raising method, b” value in data set [2] (100 mg/kg orally) was determined as 7. Moreover, the “Lethal effect, Female (dead/total)” value in [8] (180 mg/kg oral) is on record as 1/8; in data set [8] (234 mg/kg oral), 2/8; in [8] (304 mg/kg oral) it was 3/8; in data set [8] (395 mg/kg oral), 5/8; in data set [8] (514 mg/kg oral), 6/8; in data set [8] (668 mg/kg oral) it was 8/8. Further, the “Lethal effect, Male (dead/total)” value was 0/8 in [8] (180 mg/kg oral); 2/8 in data set [8] (234 mg/kg oral); 4/8 in [8] (304 mg/kg oral); 5/8 in [8] (395 mg/kg oral); 6/8 in [8] (514 mg/kg oral); 8/8 in [8] (668 mg/kg oral). The selectivity ratio in “Acute toxicity (oral)” (oral LD50 male rat / ED50 carrageenin oedema rat, read-out: therapeutic index (LD50/ED50)) was 29.6. For the same molecule, the LD50 at 168 h in the data set “Acute toxicity (oral)” (female rats, 95% CL (250-476), read-out: LD50, Female) amounted to 345 mg/kg; in the data set “Acute toxicity (oral)” (male rats, 95% CL (238-453), read-out: LD50, Male), 328 mg/kg. Also, the figures for the “Size of ulcerated region of stomach” value in the data set on stomach [4] (setting [9]) and in the data set with stomach [5] (setting [10]) were 11.3 ± 2.00 mm^2 and 4.1 ± 0.46 mm^2, respectively. The “Pressure method, Ratio (average)” value in data set [3] (150 mg/kg orally) is given as 1.36.
Take `CC(C)Cc1ccc(C(C)C(=O)O)cc1` (centres unmarked) [Ibuprofen]: in data set [1] (100 mg/kg orally), the “Randall-Selitto method, Analgesic index, Inflamed foot” value came out at 1.20 and the “Randall-Selitto method, Analgesic index, Normal foot” value is 1.05. For the same molecule, in data set [2] (200 mg/kg orally), the “Acetic Acid Raising method, a (graded response)” value stood at 21.9 and the “Acetic Acid Raising method, b” value is listed as 20.
`Cc1c(N(C)C)c(=O)n(-c2ccccc2)n1C` [Aminopyrine]: the “Pressure method, Ratio (average)” value in [3] (150 mg/kg orally) was 2.02.
